Experimental data taken from patent US20250059201A1, “CAMPTOTHECIN COMPOUND AND CONJUGATE THEREOF” (priority 2021, published 2025).
Read-outs that look alike come from different tables or passages of the source.

What was measured:
Format in all cases: cell-based
BT-20 = experiment: Proliferation-inhibiting effect on tumor cells (SRB or MTT assay); conditions: Homo sapiens, BT-20, 144 h
Experimental: (§1) For cells growing by adherence, SRB assay was used to detect effect of antibody-drug conjugates or camptothecins on the proliferation of tumor cells in vitro cultured. A certain number of cells in exponential growth phase were inoculated in 96-well cell culture plates, and when the cells grew by adherence overnight, antibody drug conjugates or camptothecins of different concentrations were added into the cells. 144 hours later, the cells were fixed with trichloroacetic acid, and then stained with SRB (prepared in 1% glacial acetic acid at a concentration of 4 mg/mL). 10 mM Tris solution was added into each well to solubilize the bound SRB. OD values at 510 nm were read on a microplate reader.
(§2) Inhibition (%)=([…] of control well−OD value of dosed well)/OD value of control well×100%
(§3) For cells growing in suspension, MTT assay was used to detect effect of antibody-drug conjugates or camptothecins on the proliferation of tumor cells in vitro cultured. A certain number of cells in exponential growth phase were inoculated in 96-well cell culture plates, and when the cells grew in suspension overnight, antibody-drug conjugates or camptothecins of different concentrations were added into the cells. 144 hours later, MTT was added to each well of the plates, and the incubation was continued for 4 hours at 37° C. in a 5% CO2 saturated humidity incubator. Next, 100 μL of SDS-isobutanol-HCl solution was added into each well of the plates, and OD values at 570 nm and 690 nm were read on a microplate reader.
(§4) Half maximal inhibitory concentration (IC50) was calculated from the inhibition (%) at those different concentrations using the software Graphpad Prism 8.0. The experiment was repeated once and the data was expressed as mean±SD.

BT-474 = experiment: as above; conditions: Homo sapiens, BT-474, 144 h
Experimental: as §1, §2, §3, §4

BxPC-3 = experiment: as above; conditions: Homo sapiens, BXPC-3, 144 h
Experimental: as §1, §2, §3, §4

Calu-3 = experiment: as above; conditions: Homo sapiens, Calu-3, 144 h
Experimental: as §1, §2, §3, §4

Colo 205 = experiment: as above; conditions: Homo sapiens, COLO 205, 144 h
Experimental: as §1, §2, §3, §4

HT-29 = experiment: as above; conditions: Homo sapiens, HT-29, 144 h
Experimental: as §1, §2, §3, §4

HT1376 = experiment: as above; conditions: Homo sapiens, HT-1376, 144 h
Experimental: as §1, §2, §3, §4

MCF-7 = experiment: as above; conditions: Homo sapiens, MCF7, 144 h
Experimental: as §1, §2, §3, §4

MDA-MB-231/TROP2 = experiment: as above; conditions: Homo sapiens, MDA-MB-231, 144 h
Experimental: as §1, §2, §3, §4

MDA-MB-231 = experiment: as above; conditions: Homo sapiens, MDA-MB-231, 144 h
Experimental: as §1, §2, §3, §4

MDA-MB-468 = experiment: as above; conditions: Homo sapiens, MDA-MB-468, 144 h, read-out: IC50 (nM) Mean ± SD
Experimental: as §1, §2, §3, §4

NCI-N87 = experiment: as above; conditions: Homo sapiens, NCI-N87, 144 h
Experimental: as §1, §2, §3, §4

BxPC-3 cells = experiment: Apoptosis-inducing effect; conditions: BxPC-3, 120 hours, over the tested concentrations
Experimental: BxPC-3 cells (purchased from: ATCC) were inoculated into 6-well plates, and then treated with Trop2-ADC-14 (0.020, 0.196, and 1.963 nM), DS-1062 (0.020, 0.196, and 1.963 nM), the mAb in Trop2-ADC-14 (i.e., antibody h23-12) (6.728 nM) and Compound 3 (0.1, 1, and 10 nM) for 120 hours. Next, the cells were harvested, and Annexin-V-FITC and PI were added thereto, and the cells were stained at room temperature for 15 minutes in dark, and finally were re-suspended in the added 300 μl of 1× binding buffer. Apoptosis was detected with a flow cytometer (BD AccuriTMC6 Plus flow cytometer), for which 1×10^4 cells were gated for each group. Experimental data was analyzed using software BD CSampler™ Plus C6.

[1] = read-out: IC50 (nM) 1st experiment
[2] = read-out: IC50 (nM) 2nd experiment

Compound `CC[C@@]1(O)C(=O)OCc2c1cc1n(c2=O)Cc2c-1nc1ccc(N)c3c1c2C(F)(F)CC3` [Compound 3] has an IC50 (BT-20; [1]) of 0.5 nM, an IC50 (BT-20; [2]) of 0.5 nM and an IC50 (BT-20; read-out: IC50 (nM) Mean ± SD) of 0.53 ± 0.01 nM. It also gave an IC50 (BT-474; [1]) of 2.3 nM, an IC50 (BT-474; [2]) of 0.5 nM and an IC50 (BT-474; read-out: IC50 (nM) Mean ± SD) of 1.43 ± 1.25 nM. For the same compound, the IC50 (BxPC-3; [1]) was 0.2 nM, the IC50 (BxPC-3; [2]) was 0.2 nM and the IC50 (BxPC-3; read-out: IC50 (nM) Mean ± SD) was 0.17 ± 0.01 nM. For the same compound, the IC50 (Calu-3; [1]) was 0.4 nM, the IC50 (Calu-3; [2]) was 0.4 nM and the IC50 (Calu-3; read-out: IC50 (nM) Mean ± SD) was 0.4 ± 0.02 nM. For the same compound, the IC50 (Colo 205; [1]) was 0.2 nM, the IC50 (Colo 205; [2]) was 0.2 nM and the IC50 (Colo 205; read-out: IC50 (nM) Mean ± SD) was 0.21 ± 0.05 nM. The IC50 (HT-29; [1]) was 0.4 nM, the IC50 (HT-29; [2]) was 0.4 nM and the IC50 (HT-29; read-out: IC50 (nM) Mean ± SD) was 0.4 ± 0.01 nM. For the same compound, the IC50 (HT1376; [1]) was 1 nM, the IC50 (HT1376; [2]) was 0.9 nM and the IC50 (HT1376; read-out: IC50 (nM) Mean ± SD) was 0.98 ± 0.08 nM. For the same compound, the IC50 (MCF-7; [1]) was 0.2 nM, the IC50 (MCF-7; [2]) was 0.1 nM and the IC50 (MCF-7; read-out: IC50 (nM) Mean ± SD) was 0.11 ± 0.08 nM. The IC50 (MDA-MB-231/TROP2; [1]) was 0.1 nM, the IC50 (MDA-MB-231/TROP2; [2]) was 0.1 nM and the IC50 (MDA-MB-231/TROP2; read-out: IC50 (nM) Mean ± SD) was 0.06 ± 0.01 nM. For the same compound, the IC50 (MDA-MB-231; [1]) was 0.8 nM, the IC50 (MDA-MB-231; [2]) was 0.8 nM and the IC50 (MDA-MB-231; read-out: IC50 (nM) Mean ± SD) was 0.69 ± 0.15 nM. The IC50 (MDA-MB-468) was 0.16 ± 0.01 nM, the IC50 (NCI-N87; [1]) was 0.4 nM and the IC50 (NCI-N87; [2]) was 0.5 nM. For the same compound, the IC50 (NCI-N87; read-out: IC50 (nM) Mean ± SD) was 0.47 ± 0.07 nM and the apoptosis-inducing effect (BxPC-3 cells) was “induced apoptosis of BxPC-3 cells in a concentration-dependent manner”.
